The experiment relates to Human immunodeficiency virus 1. The experiment in a line: Antiviral activity against HIV1 infected in human MT4 cells assessed as protection against virus-induced cytopathic effect. Type of experiment: functional, organism-based. The conditions noted are these: for IC50: Human immunodeficiency virus 1, MT4; for pIC50: mt4. In general terms: Cytopathic effects are the visible damage that an infection or toxin causes in cultured cells.

A word on the IC50: it is the concentration needed to halve the response being measured. Take `CCCN1Cc2cccc3[nH]c(=O)n(c23)C[C@@H]1C`: the IC50 is 89.1 µM.
The same measure, in the same setting: the value for `C[C@H]1Cn2c(=O)[nH]c3cccc(c32)CN1CC1CC1` was 43.7 µM; that for `C/C=C/CN1Cc2cccc3[nH]c(=O)n(c23)C[C@@H]1C` was 57.5 µM; that for `C=C(C)CN1Cc2cccc3[nH]c(=O)n(c23)C[C@@H]1C` was 46.8 µM.
On the same count and under the same terms, the value for `C#CCN1Cc2cccc3[nH]c(=O)n(c23)C[C@@H]1C` was 575 µM.
Turning to `C/C=C\CN1Cc2cccc3[nH]c(=O)n(c23)C[C@@H]1C`, the IC50 was 34.7 µM.
The same measure, in the same setting: the value for `C=C(CC)CN1Cc2cccc3[nH]c(=O)n(c23)C[C@@H]1C` was 37.2 µM; that for `C/C=C(\C)CN1Cc2cccc3[nH]c(=O)n(c23)C[C@@H]1C` was 28.8 µM; that for `C[C@H]1Cn2c(=O)[nH]c3cccc(c32)CN1C/C=C\c1ccccc1` was 123 µM.
Take `CC1c2cccc3[nH]c(=S)n(c23)[C@@H](C)[C@H](C)N1CC1CC1` (stereo not given in full): the IC50 was 13.5 µM.
On to `C=CC(=C)CN1Cc2cccc3[nH]c(=O)n(c23)C[C@@H]1C`, for which the IC50 is 70.8 µM.
As to `C=C(Br)CN1Cc2cccc3[nH]c(=O)n(c23)C[C@@H]1C`, the IC50 was 61.7 µM.
Same read-out and setting: the value for `COC(=O)CN1Cc2cccc3[nH]c(=O)n(c23)C[C@@H]1C` was 851 µM; that for `C[C@H]1Cn2c(=O)[nH]c3cccc(c32)CN1Cc1ccco1` was 107 µM.
On the same count and under the same terms, the value for `C=CCCN1Cc2cccc3[nH]c(=O)n(c23)C[C@@H]1C` was 50.1 µM; that for `C[C@@H]1CN(CC2CC2)Cc2cc(Cl)cc3[nH]c(=S)n1c23` was 2.19 µM.
On the same count and under the same terms, the value for `CC(C)=CCN1Cc2cccc3nc(O)n(c23)C[C@@H]1C` was 12.6 µM.
Turning to `CC(C)=CCN1Cc2cc(Cl)c(Cl)c3nc(S)n(c23)C[C@@H]1C`, the IC50 is 0.0251 µM.
The same measure, in the same setting: the value for `CC(C)=CCN1[C@H](C)Cn2c(=S)[nH]c3cccc(c32)[C@@H]1C` was 1.15 µM.
For `C=CCN1Cc2cccc3[nH]c(=O)n(c23)C[C@@H]1C`, the IC50 is 70.8 µM.
Still for that read-out and setting: the value for `CCCCN1Cc2cccc3[nH]c(=O)n(c23)C[C@@H]1C` was 100 µM; that for `C=C(C)CN1Cc2cccc3[nH]c(=O)n(c23)CC1C` (stereo not given) was 34.7 µM.
Turning to `CCCN1Cc2cccc3[nH]c(=O)n(c23)CC1C` (stereo not given), the IC50 is 60.3 µM.
On the same count and under the same terms, the value for `CCCN1Cc2cccc3[nH]c(=S)n(c23)CC1C` (stereo not given) was 1.66 µM; that for `C=C(C)CN1Cc2cccc3[nH]c(=O)n(c23)C(C)C1` (stereo not given) was 31.6 µM; that for `CC(C)=CCN1C(C)c2cccc3[nH]c(=O)n(c23)[C@@H](C)[C@H]1C` (relative stereo) was 56.2 µM.
In the case of `CC(C)=CCN1C(C)c2cccc3[nH]c(=S)n(c23)[C@@H](C)[C@H]1C` (relative stereo), the IC50 was 2.24 µM.
On the same count and under the same terms, the value for `CC(C)=CCN1[C@@H](C)Cn2c(=S)[nH]c3cccc(c32)[C@@H]1C` (relative stereo) was 0.0417 µM.
By pIC50 is commonly meant the negative decadic logarithm of the IC50, by convention in mol/L. As to `CC(C)=CCN1Cc2cccc3[nH]c(=S)n(c23)C[C@@H]1C` (stereo in doubt; 1), the pIC50 is listed as 7.36.
Still for that read-out and setting: the value for `CC(C)=CCN1Cc2cccc3[nH]c(=S)n(c23)C[C@@H]1C` (stereo in doubt; 81) was 7.01.

The values are drawn from ChEMBL document CHEMBL1157041, “Support vector machines: development of QSAR models for predicting anti-HIV-1 activity of TIBO derivatives” (Eur J Med Chem, 2010).
